Results: PubChem BioAssay AID1259407 (Chemical Carcinogenesis Research Information System (CCRIS), 2018)
Active and inactive are the calls of the source. The rule behind the calls is not given here.

Tested on: CCRIS mutagenicity, Ames/micronucleus/aberration tests
Assay: CCRIS mutagenicity studies
[1] = Test System: AMES SALMONELLA TYPHIMURIUM, Strain/Indicator: TA98, Metabolic Activation: HAMSTER, LIVER, S-9, AROCLOR 1254 (10%), Method: PREINCUBATION
[2] = Test System: AMES SALMONELLA TYPHIMURIUM, Strain/Indicator: TA98, Metabolic Activation: NONE, Method: PREINCUBATION
[3] = Test System: AMES SALMONELLA TYPHIMURIUM, Strain/Indicator: TA100, Metabolic Activation: HAMSTER, LIVER, S-9, AROCLOR 1254 (10%), Method: PREINCUBATION
[4] = Test System: AMES SALMONELLA TYPHIMURIUM, Strain/Indicator: TA100, Metabolic Activation: NONE, Method: PREINCUBATION
[5] = Test System: AMES SALMONELLA TYPHIMURIUM, Strain/Indicator: TA1535, Metabolic Activation: HAMSTER, LIVER, S-9, AROCLOR 1254 (10%), Method: PREINCUBATION
[6] = Test System: AMES SALMONELLA TYPHIMURIUM, Strain/Indicator: TA1535, Metabolic Activation: NONE, Method: PREINCUBATION
[7] = Test System: AMES SALMONELLA TYPHIMURIUM, Strain/Indicator: TA1535, Metabolic Activation: RAT, LIVER, S-9, AROCLOR 1254 (10%), Method: PREINCUBATION
[8] = Test System: AMES SALMONELLA TYPHIMURIUM, Strain/Indicator: TA1537, Metabolic Activation: NONE, Method: PREINCUBATION
[9] = Test System: AMES SALMONELLA TYPHIMURIUM, Strain/Indicator: TA98, Metabolic Activation: NONE, Method: STANDARD PLATE
[10] = Test System: AMES SALMONELLA TYPHIMURIUM, Strain/Indicator: TA100, Metabolic Activation: NONE, Method: STANDARD PLATE

SMILES: CCCCCCCCn1sccc1=O
- mutagenic call (Test System: AMES SALMONELLA TYPHIMURIUM, Strain/Indicator: TA97, Metabolic Activation: HAMSTER, LIVER, S-9, AROCLOR 1254 (10%), Method: PREINCUBATION): inactive; negative
- mutagenic call (Test System: AMES SALMONELLA TYPHIMURIUM, Strain/Indicator: TA97, Metabolic Activation: HAMSTER, LIVER, S-9, AROCLOR 1254 (30%), Method: PREINCUBATION): inactive; negative
- mutagenic call (Test System: AMES SALMONELLA TYPHIMURIUM, Strain/Indicator: TA97, Metabolic Activation: NONE, Method: PREINCUBATION): inactive; negative
- mutagenic call (Test System: AMES SALMONELLA TYPHIMURIUM, Strain/Indicator: TA97, Metabolic Activation: RAT, LIVER, S-9, AROCLOR 1254 (10 OR 30%), Method: PREINCUBATION): inactive; negative
- mutagenic call [1]: inactive; negative
- mutagenic call (Test System: AMES SALMONELLA TYPHIMURIUM, Strain/Indicator: TA98, Metabolic Activation: HAMSTER, LIVER, S-9, AROCLOR 1254 (30%), Method: PREINCUBATION): inactive; negative
- mutagenic call [2]: inactive; negative
- mutagenic call (Test System: AMES SALMONELLA TYPHIMURIUM, Strain/Indicator: TA98, Metabolic Activation: RAT, LIVER, S-9, AROCLOR 1254 (10 OR 30%), Method: PREINCUBATION): inactive; negative
- mutagenic call [3]: inactive; negative
- mutagenic call (Test System: AMES SALMONELLA TYPHIMURIUM, Strain/Indicator: TA100, Metabolic Activation: HAMSTER, LIVER, S-9, AROCLOR 1254 (30%), Method: PREINCUBATION): inactive; negative
- mutagenic call [4]: inactive; negative
- mutagenic call (Test System: AMES SALMONELLA TYPHIMURIUM, Strain/Indicator: TA100, Metabolic Activation: RAT, LIVER, S-9, AROCLOR 1254 (10 OR 30%), Method: PREINCUBATION): inactive; negative
- mutagenic call [5]: inactive; negative
- mutagenic call (Test System: AMES SALMONELLA TYPHIMURIUM, Strain/Indicator: TA1535, Metabolic Activation: HAMSTER, LIVER, S-9, AROCLOR 1254 (30%), Method: PREINCUBATION): inactive; negative
- mutagenic call [6]: inactive; negative
- mutagenic call [7]: inactive; negative
- mutagenic call (Test System: AMES SALMONELLA TYPHIMURIUM, Strain/Indicator: TA1535, Metabolic Activation: RAT, LIVER, S-9, AROCLOR 1254 (30%), Method: PREINCUBATION): inactive; negative
- mutagenic call (Test System: AMES SALMONELLA TYPHIMURIUM, Strain/Indicator: TA1537, Metabolic Activation: HAMSTER, LIVER, S-9, AROCLOR 1254 (30%), Method: PREINCUBATION): inactive; negative
- mutagenic call [8]: inactive; negative
- mutagenic call (Test System: AMES SALMONELLA TYPHIMURIUM, Strain/Indicator: TA1537, Metabolic Activation: RAT, LIVER, S-9, AROCLOR 1254 (30%), Method: PREINCUBATION): inactive; negative

SMILES: Cc1nc2c(c3[nH]c4ccccc4c13)C(=O)C=C(N1CC1)C2=O
- mutagenic call (Test System: AMES SALMONELLA TYPHIMURIUM, Strain/Indicator: TA97, Metabolic Activation: NONE, Method: STANDARD PLATE): active; positive
- mutagenic call (Test System: AMES SALMONELLA TYPHIMURIUM, Strain/Indicator: TA97, Metabolic Activation: RAT, LIVER, S-9, AROCLOR 1254, Method: STANDARD PLATE): active; positive
- mutagenic call [9]: active; positive
- mutagenic call (Test System: AMES SALMONELLA TYPHIMURIUM, Strain/Indicator: TA98, Metabolic Activation: RAT, LIVER, S-9, AROCLOR 1254, Method: STANDARD PLATE): active; positive
- mutagenic call [10]: active; positive
- mutagenic call (Test System: AMES SALMONELLA TYPHIMURIUM, Strain/Indicator: TA100, Metabolic Activation: RAT, LIVER, S-9, AROCLOR 1254, Method: STANDARD PLATE): active; positive
- mutagenic call (Test System: AMES SALMONELLA TYPHIMURIUM, Strain/Indicator: TA102, Metabolic Activation: NONE, Method: STANDARD PLATE): inactive; negative
- mutagenic call (Test System: AMES SALMONELLA TYPHIMURIUM, Strain/Indicator: TA102, Metabolic Activation: RAT, LIVER, S-9, AROCLOR 1254, Method: STANDARD PLATE): active; positive

SMILES: CN=C([S-])N/N=C/C(C)=N/NC([S-])=NC.[Cu+2]
- mutagenic call [9]: inactive; negative
- mutagenic call (Test System: AMES SALMONELLA TYPHIMURIUM, Strain/Indicator: TA98, Metabolic Activation: RAT, LIVER, S-9, AROCLOR, Method: STANDARD PLATE): inactive; negative
- mutagenic call [10]: inactive; negative
- mutagenic call (Test System: AMES SALMONELLA TYPHIMURIUM, Strain/Indicator: TA100, Metabolic Activation: RAT, LIVER, S-9, AROCLOR, Method: STANDARD PLATE): inactive; negative

SMILES: COc1ccc([N+](=O)[O-])ccc1=O
- mutagenic call (Test System: AMES SALMONELLA TYPHIMURIUM, Strain/Indicator: TA98, Metabolic Activation: RAT, LIVER, S-9, KC500 OR PHENOBARBITAL, Method: LIQUID SUSPENSION): active; positive
- mutagenic call (Test System: AMES SALMONELLA TYPHIMURIUM, Strain/Indicator: TA100, Metabolic Activation: RAT, LIVER, S-9, KC500 OR PHENOBARBITAL, Method: LIQUID SUSPENSION): active; positive

SMILES: COc1cc(-c2ccc(N/N=C3\C(=O)c4c(O)cc(S(=O)(=O)O)cc4C=C3S(=O)(=O)O)c(OC)c2)ccc1N/N=C1\C(=O)c2c(O)cc(S(=O)(=O)O)cc2C=C1S(=O)(=O)O
- mutagenic call [1]: inactive; negative
- mutagenic call [2]: inactive; negative
- mutagenic call (Test System: AMES SALMONELLA TYPHIMURIUM, Strain/Indicator: TA98, Metabolic Activation: RAT, LIVER, S-9, AROCLOR 1254 (10%), Method: PREINCUBATION): inactive; negative
- mutagenic call [3]: inactive; negative
- mutagenic call [4]: inactive; negative
- mutagenic call (Test System: AMES SALMONELLA TYPHIMURIUM, Strain/Indicator: TA100, Metabolic Activation: RAT, LIVER, S-9, AROCLOR 1254 (10%), Method: PREINCUBATION): inactive; negative
- mutagenic call [5]: inactive; negative
- mutagenic call [6]: inactive; negative
- mutagenic call [7]: inactive; negative
- mutagenic call (Test System: AMES SALMONELLA TYPHIMURIUM, Strain/Indicator: TA1537, Metabolic Activation: HAMSTER, LIVER, S-9, AROCLOR 1254 (10%), Method: PREINCUBATION): inactive; negative
- mutagenic call [8]: inactive; negative
- mutagenic call (Test System: AMES SALMONELLA TYPHIMURIUM, Strain/Indicator: TA1537, Metabolic Activation: RAT, LIVER, S-9, AROCLOR 1254 (10%), Method: PREINCUBATION): inactive; negative
- mutagenic call (Test System: AMES SALMONELLA TYPHIMURIUM, Strain/Indicator: TA1538, Metabolic Activation: RAT, LIVER, S-9, AROCLOR 1254, Method: STANDARD PLATE): inactive; negative

SMILES: NC(=O)N(CCCl)N=O
- mutagenic call (Test System: CHINESE HAMSTER V-79, Strain/Indicator: V-79/6-THIOGUANINE, Metabolic Activation: NONE, Method: STANDARD PLATE): active; positive
- mutagenic call (Test System: E. COLI B, Strain/Indicator: H/R30R, Metabolic Activation: NONE): active; positive
- mutagenic call (Test System: E. COLI B, Strain/Indicator: HS30R, Metabolic Activation: NONE): active; positive
